This is an account of results in PubChem BioAssay AID723 (NMMLSC, 2007).

The source made the active and inactive calls. The rule behind the calls is not given here. Where only a bound is given, the exact number is not on record here.

In this assay the target is N-formyl peptide receptor 2 (Homo sapiens) (UniProt P25090). Description: FPRL1 fluorescent ligand binding inhibitors, dose response, selectivity assay for FPR1 ligand SAR project, cell-based, flow cytometry, Ki from IC50 (AID 723). As to conditions: FPRL1-expressing cells, fluorescent ligand binding competition; for Ki: measured here: Ki from IC50. Background: In flow cytometry, cells or beads pass a laser one at a time.
Chain of N-formyl peptide receptor 2 (Homo sapiens) (P25090 whole entry, looked up): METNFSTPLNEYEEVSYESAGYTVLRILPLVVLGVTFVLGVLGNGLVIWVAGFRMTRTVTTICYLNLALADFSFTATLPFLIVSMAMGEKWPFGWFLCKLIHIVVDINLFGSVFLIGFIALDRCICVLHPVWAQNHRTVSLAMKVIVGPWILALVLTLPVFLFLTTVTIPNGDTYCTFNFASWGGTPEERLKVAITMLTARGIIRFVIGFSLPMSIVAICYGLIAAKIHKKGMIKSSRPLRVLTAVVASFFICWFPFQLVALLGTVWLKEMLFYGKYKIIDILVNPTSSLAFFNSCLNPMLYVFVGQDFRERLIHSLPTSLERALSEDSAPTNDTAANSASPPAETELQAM

One may read the IC50 as the point on the concentration scale where inhibition reaches its midpoint. By Ki is commonly meant a dissociation constant, usually derived from enzyme kinetics or from competition with a known ligand. Low values mean higher affinity, high ones lower affinity. Consider `O=C1NC(c2ccc(Br)cc2)/C(=C(\O)c2ccc(Cl)cc2)C1=O` (stereo not drawn), for which the IC50 was > 66.7 µM (inactive) and the Ki was greater than 40.3 µM.

The compound `O=C(Oc1ccc2c(=O)c(Oc3ccccc3Br)c(C(F)(F)F)oc2c1)c1cccs1` registered a Ki greater than 40.3 µM. On to `COc1ccc(C2C(C(=O)c3cccs3)=C(O)C(=O)N2CCN2CCOCC2)c(OC)c1` (stereo not drawn), for which the IC50 is > 66.7 µM (inactive) and the Ki was greater than 40.3 µM. The corresponding values for `CC(=O)C1=C(O)C(=O)N(CCc2c(C)[nH]c3ccccc23)C1c1cccc(F)c1` (stereo not drawn) are > 66.7 µM (inactive) and greater than 40.3 µM. The compound `COc1cccc(/C=C2/C(=O)NN(c3ccc(C)cc3)C2=O)c1` came in with a Ki greater than 40.3 µM. As to `CCCCCCOc1cccc(N2C(=O)C(=O)/C(=C(\O)c3ccccc3)C2c2cccc(F)c2)c1` (stereo not drawn), the IC50 was > 66.7 µM (inactive) and the Ki is greater than 40.3 µM. For the compound `O=C1CC(c2ccccc2C(F)(F)F)C2=C(CC(c3cccs3)CC2=O)N1` (stereo not drawn), the Ki was greater than 40.3 µM. Still for that read-out and setting: next, `COc1ccc(-c2c(C(F)(F)F)oc3c(CN4CCOCC4)c(O)ccc3c2=O)cc1OC`: greater than 40.3 µM. Regarding `COc1ccc(OC)c(C2/C(=C(\O)c3ccccc3)C(=O)C(=O)N2c2cccnc2)c1` (stereo not drawn), the IC50 was > 66.7 µM (inactive) and the Ki was greater than 40.3 µM. As to `COc1ccc(/C(O)=C2/C(=O)C(=O)NC2c2ccc(OC)cc2OC)cc1` (stereo not drawn), the IC50 was > 66.7 µM (inactive) and the Ki was greater than 40.3 µM. Regarding `Cc1cccc(C)c1NC(=O)C(NC(=O)Cc1cccs1)c1ccccc1` (stereo not drawn), the Ki is greater than 40.3 µM. For `COc1ccc(C2C(C(=O)c3cc4ccccc4o3)=C(O)C(=O)N2CCN(C)C)cc1OC` (stereo not drawn), the IC50 was > 66.7 µM (inactive) and the Ki was greater than 40.3 µM. Consider `O=C(O)C1CCCCC1C(=O)Nc1ccc(Br)cc1` (stereo not drawn), for which the Ki is greater than 40.3 µM. Turning to `COc1ccc(OC)c(C2/C(=C(\O)c3ccc(C)cc3)C(=O)C(=O)N2CCC(=O)O)c1` (stereo not drawn), the IC50 is > 66.7 µM (inactive) and the Ki is greater than 40.3 µM. Regarding `CCC(C)(C(=O)NC1CCCCC1)N(Cc1cccs1)C(C)=O` (stereo not drawn), the Ki was greater than 40.3 µM. Regarding `COc1ccc(C2C(C(=O)c3cccs3)=C(O)C(=O)N2CCCn2ccnc2)cc1` (stereo not drawn), the IC50 was > 66.7 µM (inactive) and the Ki was greater than 40.3 µM. `N#Cc1c(N/C(=C\C(=O)c2ccccc2)C(=O)O)sc2c1CCC2`: the IC50 was > 66.7 µM (inactive) and the Ki is greater than 40.3 µM. `Cc1sc2c(c1C)c(=O)n(Cc1ccccc1)c(=O)n2Cc1ccccc1F` came in with a Ki greater than 40.3 µM. As to `O=C1C(=O)N(CN2CCOCC2)C(c2ccc(Br)cc2)/C1=C(\O)c1ccccc1` (stereo not drawn), the IC50 is > 66.7 µM (inactive) and the Ki was greater than 40.3 µM.

In turn, `O=C(Oc1ccc2c(=O)c(-c3ccccc3Cl)c(C(F)(F)F)oc2c1)c1cccs1` yielded a Ki greater than 40.3 µM. On to `O=C(C1=C(O)C(=O)N(CCc2ccccc2)C1c1ccc(Cl)cc1)c1cccs1` (stereo not drawn), for which the IC50 is > 66.7 µM (inactive) and the Ki is greater than 40.3 µM.

As to `COc1ccc(C2/C(=C(\O)c3ccccc3)C(=O)C(=O)N2c2cccc(Cl)c2)c(OC)c1` (stereo not drawn), the IC50 was > 66.7 µM (inactive) and the Ki is greater than 40.3 µM. Regarding `CC(C)C(=O)N(Cc1ccco1)S(=O)(=O)c1cccc2cccnc12`, the Ki was greater than 40.3 µM. Consider `O=C(C1=C(O)C(=O)N(CCCn2ccnc2)C1c1cccnc1)c1ccco1` (stereo not drawn), for which the IC50 was > 66.7 µM (inactive) and the inhibitory constant (Ki) was greater than 40.3 µM. `CCc1cc2c(=O)c(-c3nc4ccccc4n3C)c(C)oc2cc1OC(C)=O` showed a Ki greater than 40.3 µM.

For the compound `COc1ccc(C2C(C(=O)N3CCCC(C)C3)c3ccccc3C(=O)N2C)cc1` (stereo not drawn), the Ki is greater than 40.3 µM. As to `COc1cc(C2C(C(=O)c3cc4ccccc4o3)=C(O)C(=O)N2CCN(C)C)ccc1O` (stereo not drawn), the IC50 was > 66.7 µM (inactive) and the Ki was greater than 40.3 µM. The corresponding values for `COc1ccc(C2C(C(=O)c3ccco3)=C(O)C(=O)N2CCCN2CCOCC2)cc1OC` (stereo not drawn) are > 66.7 µM (inactive) and greater than 40.3 µM. In turn, `COc1ccccc1-c1c(C(F)(F)F)oc2cc(OC(=O)c3ccco3)ccc2c1=O` came in with a Ki greater than 40.3 µM. With `COCCN1C(=O)C(=O)/C(=C(/O)c2ccccc2)C1c1ccccc1OC` (stereo not drawn), the IC50 was > 66.7 µM (inactive) and the Ki was greater than 40.3 µM. In the case of `O=C(C1=C(O)C(=O)N(CCCN2CCOCC2)C1c1cccnc1)c1cc2ccccc2o1` (stereo not drawn), the IC50 is > 66.7 µM (inactive) and the Ki is greater than 40.3 µM. On the same counts, the results for `COCCN1C(=O)C(=O)/C(=C(/O)c2ccccc2)C1c1cc(OC)ccc1OC` (stereo not drawn) are > 66.7 µM (inactive) and greater than 40.3 µM. Consider `COCCN1C(=O)C(=O)/C(=C(/O)c2ccccc2)C1c1ccc(C(C)C)cc1` (stereo not drawn), for which the IC50 was > 66.7 µM (inactive) and the Ki is greater than 40.3 µM. Turning to `COc1ccc(OC)c(CNC(=O)Cn2c(=O)sc3ccccc32)c1`, the Ki was greater than 40.3 µM. `O=C(C1=C(O)C(=O)N(CCCn2ccnc2)C1c1cccnc1)c1cc2ccccc2o1` (stereo not drawn): the IC50 was > 66.7 µM (inactive) and the Ki is greater than 40.3 µM. On the same counts, the results for `CC(C)c1ccc(C2/C(=C(\O)c3ccccc3)C(=O)C(=O)N2Cc2cccnc2)cc1` (stereo not drawn) are > 66.7 µM (inactive) and greater than 40.3 µM. For `O=C(O)CCCN1C(=O)C(=O)/C(=C(/O)c2ccccc2)C1/C=C/c1ccccc1` (stereo not drawn), the IC50 was > 66.7 µM (inactive) and the Ki is greater than 40.3 µM. Turning to `COc1ccc(C2/C(=C(\O)c3ccccc3)C(=O)C(=O)N2CCCn2ccnc2)c(OC)c1` (stereo not drawn), the IC50 is > 66.7 µM (inactive) and the inhibitory constant (Ki) is greater than 40.3 µM.

Compound `COc1ccc(-c2c(C(F)(F)F)oc3cc(OC(=O)c4ccco4)ccc3c2=O)cc1OC` yielded a Ki greater than 40.3 µM. With `Cc1nc2c(-c3ccc(Cl)cc3)c(C(F)(F)F)[nH]n2c(=O)c1Cc1ccccc1`, the Ki was greater than 40.3 µM. For `COCCCN1C(=O)C(=O)/C(=C(/O)c2ccccc2)C1c1ccc(C(C)C)cc1` (stereo not drawn), the IC50 was > 66.7 µM (inactive) and the Ki was greater than 40.3 µM. Regarding `COCCCN1C(=O)C(=O)/C(=C(/O)c2ccccc2)C1c1ccc(O)c(OC)c1` (stereo not drawn), the IC50 is > 66.7 µM (inactive) and the Ki is greater than 40.3 µM.

For the compound `Cc1ccc(N2C(=O)C(=O)/C(=C(\O)c3ccccc3)C2c2cccc(F)c2)cc1Br` (stereo not drawn), the IC50 is > 66.7 µM (inactive) and the Ki is greater than 40.3 µM.

`COc1ccc(-c2c(C(F)(F)F)oc3cc(OC(=O)c4cccnc4)ccc3c2=O)cc1OC` returned a Ki greater than 40.3 µM. In turn, `Cc1cccc(C2CC(=O)NC3=C2C(=O)CC(c2cccs2)C3)c1` (stereo not drawn) came in with a Ki greater than 40.3 µM. `COc1ccc(OC)c(C2/C(=C(\O)c3ccccc3)C(=O)C(=O)N2c2ccc(C)c(Cl)c2)c1` (stereo not drawn): the IC50 is > 66.7 µM (inactive) and the Ki was greater than 40.3 µM. Turning to `CCCCCCN1C(=O)C(=O)/C(=C(\O)c2ccccc2)C1c1ccc(O)c(OC)c1` (stereo not drawn), the IC50 is > 66.7 µM (inactive) and the Ki is greater than 40.3 µM. As to `COc1cccc(-c2ccnc3[nH]n(-c4ccccc4)c(=O)c23)c1`, the Ki was greater than 40.3 µM. For `Cc1ccc(/C(O)=C2\C(=O)C(=O)N(c3nnc(C)s3)C2c2ccc(C(C)C)cc2)cc1` (stereo not drawn), the IC50 was > 66.7 µM (inactive) and the Ki is greater than 40.3 µM. Take `COc1ccc(/C(O)=C2/C(=O)C(=O)N(CCc3c[nH]c4ccccc34)C2c2ccc(C(C)C)cc2)cc1` (stereo not drawn): the IC50 is > 66.7 µM (inactive) and the Ki was greater than 40.3 µM. `COc1cc(C2C(C(C)=O)=C(O)C(=O)N2c2ccc(Br)cc2)ccc1O` (stereo not drawn): the IC50 is > 66.7 µM (inactive) and the Ki was greater than 40.3 µM. In the case of `COc1ccc(-c2c(C)[nH]n3c(=O)c4c(nc23)CCCC4)cc1`, the Ki is greater than 40.3 µM. The same measure, in the same setting: then `CCCC(=O)N(Cc1ccco1)S(=O)(=O)c1cccc2cccnc12`, with greater than 40.3 µM.

Turning to `O=C1C(=O)N(c2ccc(F)cc2)C(c2ccc(Br)cc2)/C1=C(/O)c1ccccc1` (stereo not drawn), the IC50 was > 66.7 µM (inactive) and the Ki was greater than 40.3 µM. The corresponding values for `COc1ccc(C2C(C(=O)c3ccco3)=C(O)C(=O)N2CCN2CCOCC2)c(OC)c1` (stereo not drawn) are > 66.7 µM (inactive) and greater than 40.3 µM. As to `Cc1ccc(/C(O)=C2\C(=O)C(=O)N(Cc3cccnc3)C2c2ccc(Br)cc2)cc1` (stereo not drawn), the IC50 was > 66.7 µM (inactive) and the Ki was greater than 40.3 µM. `COc1ccc(C2/C(=C(\O)c3ccc(C)cc3)C(=O)C(=O)N2Cc2cccnc2)c(OC)c1` (stereo not drawn): the IC50 was > 66.7 µM (inactive) and the Ki is greater than 40.3 µM.
